In assay [1] the test system is NK cells. Kind of assay: Cell proliferation assay (incorporation of [3H]-thymidine), NK cell culture with added alloferon. The format is cell-based, human. The conditions noted are these: 0.1 to 100 mg/L tested, cultured 21 days, FIG. 3. On the procedure:
30 ml of blood was collected from a human blood donor, RosetteSep NK enrichment antibody cocktail (50 ul/ml) was added thereto, and then diluted 1:1 v/v with phosphate buffer solution (PBS). The blood was centrifuged at 1600 rpm for 20 minutes using a density gradient centrifugation (Ficoll-Plaque) to separate the cell layer containing NK cells. The process of washing and centrifuging this with PBS was repeated twice. Then, the number of cells was counted by staining with trypan blue, and the average number of cells obtained was 1.6˜3.0×10^5 cell/ml, and the cells were cultured in NK cell culture medium.
The NK cell culture medium used was a combination of various substances that were conventionally known to be necessary for NK culture. […] This was used as the NK cell culture medium of Example 1, to which alloferon was further mixed and used at 0.1 to 100 mg/L as needed. […]
Specifically, NK cells (1×10^5 cells/ml) were placed in 96-well plates, and then treated with 10 mg/L each of alloferons 1 to 4 in the NK cell culture medium of Example 1, and then cultured in an environment at 5% CO2, 37° C. for 48 hours or 21 days. […] After that, the radioactivity was measured using 1450 MicroBeta TriLux (PerkinElmer Life and Analytical Sciences).

In assay [2] the test system is NK cells. Nature of the assay: Co-treatment of alloferon and other interleukins, NK cell proliferation. Particulars: only alloferon 1 added at 10 mg/L, 21 days, FIG. 4. It counts as cell-based, human. The method, then: Specifically, NK cells (1×10^5 cells/ml) were placed in 96-well plates, and then treated with 10 mg/L each of alloferons 1 to 4 in the NK cell culture medium of Example 1, and then cultured in an environment at 5% CO2, 37° C. for 48 hours or 21 days. After the culture, [^3H]-thymidine (37 mBq) was added at 0.2 μCi per well and cultured for 8 hours. Both cells and medium were transferred to a glass fiber filter (size 90.120 mm; Wallac, Turkr, Finland) using a 96-well harvester. After drying the filter, a scintillator sheet (Meltilex, Wallac) was melted to coat the filter. After that, the radioactivity was measured using 1450 MicroBeta TriLux (PerkinElmer Life and Analytical Sciences).
In order to identify factors that imparts the influence other than alloferon during NK cell culture, the NK cell proliferation effect was confirmed after co-treatment with various combinations of interleukins. Except for the medium composition, the NK cell culture method was the same as in Test Example 1, and the cells were cultured for 21 days (*** random period).

The subject of assay [3] is NK cells. Kind of assay: NK cell increase rate by flow cytometry (FACS, CD3-FITC/CD56-PE). It counts as cell-based, human. The conditions noted are these: for NK (share of cells by FACS), Table 3 / NKT (share of cells by FACS), Table 3: 10 mg/L in NK cell culture medium of Example 1, 21 days. On the procedure:
Flow Cytometry (FACS analysis) analysis was performed to confirm the NK cell increase rate. Specifically, NK cells were cultured for 21 days in a medium containing 10 mg/L each of Test Example 1, Example 1 (untreated), and Alloferon 1 to 4 in Example 1. Cells before and after culture were collected by centrifugation at 1,400 rpm for 5minutes, and the collected cells were washed twice using PBS. Then, the cells were suspended in 1 ml of PBS, and the number of living cells was measured through Trypan blue staining. The cells were dispensed into FACS tubes at 1×10^6 cells/tube, and 2 ml of PBS was added. Then, centrifugation was performed at 400 g and 4° C. for 5 minutes, and the supernatant excluding cells was removed. 100 μl of 1% albumin was added to the remaining cell pellet, and antibodies were added and mixed with PBS. NK cells were treated with antibodies (CD3-FITC, CD56-PE), reacted in a light shielding state for 30 minutes, and then the cells were washed twice with PBS. NK cells were suspended in an appropriate amount of PBS, and then the data were compared and analyzed using FACSVerse (BD Biosciences, San Diego, CA, USA).

The subject of assay [4] is NK cells. Nature of the assay: NK cell activation receptor (NKp30, NKp44, NKp46) and perforin expression by FACS. The format is cell-based, human. The conditions noted are these: for NKp30 expression / NKp44 expression / NKp46 expression / Perforin expression: NK cells proliferated 21 days, 10 mg/L in NK medium. The method, then:
Based on the results of Test Example 3, receptor expression was confirmed and compared to measure the activity of NK cells. Specifically, as in Test Example 3, NK cells were cultured in each medium, and in order to measure the activity of NK cells proliferated for 21 days, the proliferated NK cells were isolated by flow cytometry. The expression of activating markers for these cells was further confirmed. The cultured NK cells were washed twice using PBS, then dispensed into a FACS tube at 1×10^6 cells/tube, and 2 ml of PBS was added. Then, centrifugation was performed at 400 g and 4° C. for 5 minutes, and the supernatant excluding cells was removed. 100 μl of 1% albumin was added to the remaining cell pellet, sorted using antibodies (CD3-FITC, CD56-PE) together with PBS, and then isolated according to surface markers. In addition to the isolated cells, NK cells were treated with antibodies (Anti-NKp30, anti-NKp44, anti NKp46, and Perforin) to confirm the expression of activating receptors (NKp30, NKp44, NKp46) and Perforin on the surface of NK cells, and reacted in a light shielding state for 30 minutes, and the cells were washed twice again using PBS. NK cells were suspended in an appropriate amount of PBS, and the data were compared and analyzed using FACS AriaII (BD Biosciences, San Diego, CA, USA).

Assay [5] deals with NK cells. Nature of the assay: IFN-gamma secretion of NK cells (Human IFN-y ELISA). It counts as cell-based. Particulars: with IL-2 10 mg/L in typical medium, 48 hours; for IFN-r, Table 6: alloferon 100 mg/L. The method, then: IFN-r is an indicator of the activity of NK cells, and it is considered as the secretion amount is higher, the cytotoxicity is higher and the differentiation ability increases.
IFN-y secreted from NK cells was measured in the culture medium in which the cells were cultured, using a Human IFN-y ELISA kit (BD Biosciences, San Diego, CA, USA). 100 μl of capture antibody diluted in coating buffer was added to each well of a 96-well plate for ELISA, then sealed and left overnight at 4° C. It was washed three times using wash buffer, and all remaining buffer was removed. 200 μl of assay diluent was added to each well and reacted at room temperature for 1 hour for blocking. It was washed again three times using wash buffer, and all remaining buffer was removed. 100 μl of each prepared IFN-y standard and culture supernatants were added, the plate was sealed, and the reaction was performed at room temperature for 2 hours. It was washed 5 times using wash buffer, and all remaining buffer was removed. 100 μl of Working detector (Detection Antibody+SAv-HRP reagent) was added to each well, the plate was sealed, and reaction was performed at room temperature for 1 hour. It was washed 7 times using wash buffer, and all remaining buffer was removed. 100 μl of Substrate solution was added to each well and the reaction was performed at room temperature while shielding light for 30 minutes. 50 μl of Stop solution was added to each well, and the absorbance was measured at 450 nm within 30 minutes.

[6] abbreviates: after culture (day 21), 10 mg/L in NK cell culture medium of Example 1.

Results on four sequences are retold here after US20250109381A1, “COMPOSITION FOR CULTRING NK CELLS, COMPRISING ALLOFERON, AND METHOD FOR CULTURING NK CELLS USING SAME” (NK MEDICS INC., priority 2022, published 2025).

As for “HGVSGHGQHGVHG (engineered from known peptides) [Alloferon 1]”, the “concentration at which the maximum amount of NK cells was reached” value in the assay with NK cells [1] was 10 mg/L. Further, the NK cell proliferation entry with NK cells [2] is “NK cell proliferation was induced”. In the assay on NK cells [3], the “NK (share of cells by FACS), Table 3” value amounted to 74.7% and the “NKT (share of cells by FACS), Table 3” value is recorded as 6.5%. In the assay on NK cells [3] (10 mg/L, day 0 to day 21), the “increase in number of NK cells compared to typical medium (RPMI)” value is given as 1,430 times, the “increase of NK cells” value is recorded as 8,790 fold and the “increase of NKT cells” value is recorded as 560 fold. For the same sequence, in the assay on NK cells [3] (setting [6]), the “NK (share of cells by FACS)” value stood at 74.7% and the “NKT (share of cells by FACS)” value is listed as 6.5%. Moreover, in the assay with NK cells [3] (before culture (day 0)), the “NK (share of cells by FACS)” value was determined as 12.2% and the “NKT (share of cells by FACS)” value turned out to be 1.7%. Further, the “NK activity versus typical medium or NK cell culture medium of Example 1” value in the assay with NK cells [4] (21 days culture, FIG. 6 / Table 4) is given as “higher NK activity”. In the assay with NK cells [4], this sequence yielded an NKp30 expression of 57.4%, an NKp44 expression of 60.3%, an NKp46 expression of 88.4% and a Perforin expression of 99.8%. In addition, in the assay with NK cells [5], the “IFN-r, Table 6” value stood at 6.32 µg/L. This sequence gave an IFN-r with NK cells [5] (alloferon 1 0.1 mg/L) of 0.13 µg/L. Further, in the assay on NK cells [5] (alloferon 1 5 mg/L), the IFN-r was found to be 1.82 µg/L. The IFN-r in the assay on NK cells [5] (alloferon 1 10 mg/L) turned out to be 2.33 µg/L. The sequence further returned an IFN-r with NK cells [5] (alloferon 1 50 mg/L) of 4.86 µg/L. Besides, the IFN-r in the assay with NK cells [5] (alloferon 1 100 mg/L) was 6.32 µg/L.

Turning to “GVSGHGQHGVHG (engineered from known peptides) [Alloferon 2]”, in the assay on NK cells [3], the “NK (share of cells by FACS), Table 3” value was 73.8% and the “NKT (share of cells by FACS), Table 3” value is 12.4%. Further, in the assay on NK cells [4], the NKp30 expression is 53.2%, the NKp44 expression was 50.9%, the NKp46 expression came to 78.6% and the Perforin expression worked out at 99.9%. Besides, in the assay on NK cells [5], the “IFN-r, Table 6” value came out at 4.87 µg/L.

“SGHGQHGV (engineered from known peptides) [Alloferon 3]”: in the assay on NK cells [3], the “NK (share of cells by FACS), Table 3” value came to 69.7% and the “NKT (share of cells by FACS), Table 3” value is recorded as 13.2%. In the assay with NK cells [4], this sequence yielded an NKp30 expression of 47.8%, an NKp44 expression of 51.3%, an NKp46 expression of 69.1% and a Perforin expression of 90.4%. In addition, the “IFN-r, Table 6” value with NK cells [5] amounted to 3.31 µg/L.

Turning to “VSGHGQHGVH (engineered from known peptides) [Alloferon 4]”, in the assay with NK cells [3], the “NK (share of cells by FACS), Table 3” value worked out at 71.5% and the “NKT (share of cells by FACS), Table 3” value is listed as 8.4%. In the assay with NK cells [4], this sequence displayed an NKp30 expression of 61.1%, an NKp44 expression of 68.2%, an NKp46 expression of 82.5% and a Perforin expression of 99.8%. In the assay with NK cells [5], the “IFN-r, Table 6” value was 5.84 µg/L.
